According to ChEMBL document CHEMBL1150439, “Synthesis and evaluation of dual domain macrocyclic FKBP12 ligands” (Bioorg Med Chem Lett, 1994):

Each compound was assayed against Peptidyl-prolyl cis-trans isomerase FKBP1A (Homo sapiens, UniProt P62942) (assay: Binding affinity towards FK506 binding protein 12 as measured by displacement of a radiolabeled FK506 analogue).
Chain of Peptidyl-prolyl cis-trans isomerase FKBP1A (P62942 whole entry): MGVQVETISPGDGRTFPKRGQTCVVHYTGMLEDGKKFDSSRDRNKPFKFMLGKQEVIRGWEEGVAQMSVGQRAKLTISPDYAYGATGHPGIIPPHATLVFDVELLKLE

Compound	Kd [µM]
C=CCC1/C=C(\C)CCCOC(=O)OC(=O)C2CC[C@@](C)(O2)C(=O)C(=O)C(=O)OC(=O)C(=O)N2CCCC[C@H]2C(=O)O[C@H](CCc2cccnc2)[C@H](C)CCC1=O (some centres not stated)	4
C=CCC1/C=C(\C)CCOC(=O)OC(=O)CCC(=O)C(=O)OC(=O)C(=O)N2CCCC[C@H]2C(=O)O[C@H](CCc2cccnc2)[C@H](C)CCC1=O (some centres not stated)	5.5
C=CCC1/C=C(\C)CCCOC(=O)OC(=O)C2CC[C@@H](O2)C(=O)C(=O)C(=O)OC(=O)C(=O)N2CCCC[C@H]2C(=O)O[C@H](CCc2cccnc2)[C@H](C)CCC1=O (some centres not stated)	0.2
C=CCC1/C=C(\C)CCOC(=O)OC(=O)CCCCC(=O)C(=O)OC(=O)C(=O)N2CCCC[C@H]2C(=O)O[C@H](CCc2cccnc2)[C@H](C)CCC1=O (some centres not stated)	4.5
C=CCC1/C=C(\C)CCOC(=O)OC(=O)CCCC(=O)C(=O)OC(=O)C(=O)N2CCCC[C@H]2C(=O)O[C@H](CCc2cccnc2)[C@H](C)CCC1=O (some centres not stated)	2

More lines, in order of falling Kd, values ahead:

Kd [µM]	Compound
8	C=CCC1/C=C(\C)CCOC(=O)OC(=O)C2CC[C@@](C)(O2)C(=O)C(=O)C(=O)OC(=O)C(=O)N2CCCC[C@H]2C(=O)O[C@H](CCc2cccnc2)[C@H](C)CCC1=O (some centres not stated)
0.4	C=CCC1/C=C(\C)CCOC(=O)OC(=O)C2CC[C@@H](O2)C(=O)C(=O)C(=O)OC(=O)C(=O)N2CCCC[C@H]2C(=O)O[C@H](CCc2cccnc2)[C@H](C)CCC1=O (some centres not stated)
